# Test results taken from patent publication US10030006B2, “Coumarin based Hsp90 inhibitors with urea and ether substituents” (University of Kansas, priority 2013, dated 2018).
# Like-named read-outs stand apart in the source and are kept apart here.
# Experiments:
# Assay type in all cases: cell-based
# A-549 = experiment: Anti-proliferation assay, A-549
# Procedure, shortened: (§1)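 Cells were seeded at 2000/well in Advanced DMEM/F12 with 10% FBS and attached overnight, then exposed to compound (1% DMSO final) for 72 h at 37 °C.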
# PC-3 = experiment: Anti-proliferation assay, PC-3; details: Prostate Cancer
# Procedure, shortened: as §1
# DRO81-1 = experiment: Anti-proliferation assay, DRO81-1; details: Thyroid
# Procedure, shortened: as §1
# MDAMB231 = experiment: Anti-proliferation assay, MDAMB231; details: Tri-Neg
# Procedure, shortened: as §1
# MDA1986 = experiment: Anti-proliferation assay, MDA1986; details: HSNCC
# Procedure, shortened: as §1
# MRC5 = experiment: Anti-proliferation assay, MRC5 (normal); details: Homo sapiens
# Procedure, shortened: as §1
# [1] = tested on: MCF-7 (estrogen receptor positive breast cancer cells); experiment: Anti-proliferation assay (MTS/PMS, 72 h), MCF-7; details: Breast Cancer, read-out: IC50 MCF-3
# HCT-116 = experiment: Anti-proliferation assay, HCT-116
# Procedure, shortened: as §1
# HMLE = experiment: Anti-proliferation assay, HMLE (normal); details: HMLE
# Procedure, shortened: as §1
# BCPAP = experiment: Anti-proliferation assay, BCPAP; details: Thyroid
# Method: Cells were maintained in a 1:1 mixture of Advanced DMEM/F12 (Gibco) supplemented with non-essential amino acids, L-glutamine (2 mM), streptomycin (500 μg/mL), penicillin (100 units/mL), and 10% FBS. Cells were grown to confluence in a humidified atmosphere (37° C., 5% CO2), seeded (2000/well, 100 μL) in 96-well plates, and allowed to attach overnight. Compound at varying concentrations in DMSO (1% DMSO final concentration) was added, and cells were returned to the incubator for 72 h. At 72 h, the number of viable cells was determined using an MTS/PMS cell proliferation kit (Promega) per the manufacturer's instructions. Cells incubated in 1% DMSO were used at 100% proliferation, and values were adjusted accordingly. IC50 values were calculated from separate experiments performed in triplicate using GraphPad Prism.
# [2] = tested on: SKBr3 (estrogen receptor negative, Her2 over-expressing breast cancer cells); experiment: Anti-proliferation assay (MTS/PMS, 72 h), SKBr3; details: Breast Cancer, read-out: IC50 SKBr3
# JMAR = experiment: Anti-proliferation assay, JMAR; details: HSNCC
# Procedure, shortened: as §1
# [3] = Table 6, substituted phenyl ureas
# [4] = Homo sapiens, A549, Table 7, prenylated phenyl ureas
# [5] = Homo sapiens, PC-3, Table 7, prenylated phenyl ureas
# [6] = Table 7, prenylated phenyl ureas
# [7] = Homo sapiens, MDA-MB-231, Table 7, prenylated phenyl ureas
# [8] = MDA1986, Table 7, prenylated phenyl ureas
# [9] = MRC5, Table 7, prenylated phenyl ureas
# [10] = Homo sapiens, MCF7, Table 7, prenylated phenyl ureas
# [11] = Homo sapiens, HCT-116, Table 7, prenylated phenyl ureas
# [12] = Homo sapiens, BCPAP, Table 7, prenylated phenyl ureas
# [13] = Homo sapiens, SK-BR-3, Table 7, prenylated phenyl ureas
# [14] = JMAR, Table 7, prenylated phenyl ureas
# [15] = Homo sapiens, A549, Table 8, biphenyl ureas
# [16] = Homo sapiens, PC-3, Table 8, biphenyl ureas
# [17] = Homo sapiens, MDA-MB-231, Table 8, biphenyl ureas
# [18] = MDA1986, Table 8, biphenyl ureas
# [19] = Homo sapiens, MCF7, Table 8, biphenyl ureas
# [20] = Homo sapiens, HCT-116, Table 8, biphenyl ureas
# [21] = Homo sapiens, BCPAP, Table 8, biphenyl ureas
# [22] = Homo sapiens, SK-BR-3, Table 8, biphenyl ureas
compound,measurement,setting,value
"COc1cc(NC(=O)Nc2cc3ccc(OC4CCN(C)CC4)c(C)c3oc2=O)cc(OC)c1OC [3,4,5-trimethoxyl, 1-(8-methyl-7-((1-methylpiperidin-4-yl)oxy)-2-oxo-2H-chromen-3-yl)-3-(3,4,5-trimethoxyphenyl)urea]",IC50,"A-549; Homo sapiens, A549, Table 6, substituted phenyl ureas",13000 nM
same,IC50,"PC-3; Homo sapiens, PC-3, Table 6, substituted phenyl ureas",4500 nM
same,IC50,DRO81-1; [3],14700 nM
same,IC50,"MDAMB231; Homo sapiens, MDA-MB-231, Table 6, substituted phenyl ureas",2900 nM
same,IC50,"MDA1986; MDA1986, Table 6, substituted phenyl ureas",9100 nM
same,IC50,"MRC5; MRC5, Table 6, substituted phenyl ureas",> 25000 nM
same,IC50,"[1]; Homo sapiens, MCF7, Table 6, substituted phenyl ureas",1300 nM
same,IC50,"HCT-116; Homo sapiens, HCT-116, Table 6, substituted phenyl ureas",209000 nM
same,IC50,HMLE; [3],> 25000 nM
same,IC50,"BCPAP; Homo sapiens, BCPAP, Table 6, substituted phenyl ureas",1320 nM
same,IC50,"[2]; Homo sapiens, SK-BR-3, Table 6, substituted phenyl ureas",4260 nM
same,IC50,"JMAR; JMAR, Table 6, substituted phenyl ureas",1700 nM
"CC(=O)Oc1ccc(NC(=O)Nc2cc3ccc(OC4CCN(C)CC4)c(C)c3oc2=O)cc1CC=C(C)C [OAc, 4-(3-(8-methyl-7-((1-methylpiperidin-4-yl)oxy)-2-oxo-2H-chromen-3-yl)ureido)-2-(3-methylbut-2-en-1-yl)phenyl acetate]",IC50,A-549; [4],380 nM
same,IC50,PC-3; [5],380 nM
same,IC50,DRO81-1; [6],530 nM
same,IC50,MDAMB231; [7],750 nM
same,IC50,MDA1986; [8],1320 nM
same,IC50,MRC5; [9],1800 nM
same,IC50,[1]; [10],490 nM
same,IC50,HCT-116; [11],340 nM
same,IC50,HMLE; [6],7200 nM
same,IC50,BCPAP; [12],129 nM
same,IC50,[2]; [13],540 nM
same,IC50,JMAR; [14],870 nM
"COc1ccc(NC(=O)Nc2cc3ccc(OC4CCN(C)CC4)c(C)c3oc2=O)cc1CC=C(C)C [OMe, 1-(4-methoxy-3-(3-methylbut-2-en-1-yl)phenyl)-3-(8-methyl-7-((1-methylpiperidin-4-yl)oxy)-2-oxo-2H-chromen-3-yl)urea]",IC50,A-549; [4],230 nM
same,IC50,PC-3; [5],230 nM
same,IC50,DRO81-1; [6],210 nM
same,IC50,MDAMB231; [7],830 nM
same,IC50,MDA1986; [8],850 nM
same,IC50,MRC5; [9],2640 nM
same,IC50,[1]; [10],370 nM
same,IC50,HCT-116; [11],300 nM
same,IC50,HMLE; [6],6500 nM
same,IC50,BCPAP; [12],1340 nM
same,IC50,[2]; [13],510 nM
same,IC50,JMAR; [14],800 nM
"COc1ccc(NC(=O)Nc2cc3ccc(OC4CCN(C)CC4)c(C)c3oc2=O)cc1-c1cccc(OC(C)=O)c1 [OMe, OAc, 2′-methoxy-5′-(3-(8-methyl-7-((1-methylpiperidin-4-yl)oxy)-2-oxo-2H-chromen-3-yl)ureido)-[1,1′-biphenyl]-3-yl acetate]",IC50,A-549; [15],540 nM
same,IC50,PC-3; [16],1040 nM
same,IC50,"DRO81-1; Table 8, biphenyl ureas",260 nM
same,IC50,MDAMB231; [17],390 nM
same,IC50,MDA1986; [18],850 nM
same,IC50,"MRC5; MRC5, Table 8, biphenyl ureas",3100 nM
same,IC50,[1]; [19],270 nM
same,IC50,HCT-116; [20],3390 nM
same,IC50,"HMLE; Table 8, biphenyl ureas",1000 nM
same,IC50,BCPAP; [21],16 nM
same,IC50,[2]; [22],260 nM
same,IC50,"JMAR; JMAR, Table 8, biphenyl ureas",2200 nM
"COc1ccc(NC(=O)Nc2cc3ccc(OC4CCN(C)CC4)c(C)c3oc2=O)cc1-c1cccc(O)c1 [OMe, OH, 1-(3′-hydroxy-6-methoxy-[1,1′-biphenyl]-3-yl)-3-(8-methyl-7-((1-methylpiperidin-4-yl)oxy)-2-oxo-2H-chromen-3-yl)urea]",IC50,A-549; [15],410 nM
same,IC50,PC-3; [16],600 nM
same,IC50,"DRO81-1; Table 8, biphenyl ureas",1200 nM
same,IC50,MDAMB231; [17],95 nM
same,IC50,MDA1986; [18],2800 nM
same,IC50,"MRC5; MRC5, Table 8, biphenyl ureas",9800 nM
same,IC50,[1]; [19],290 nM
same,IC50,HCT-116; [20],420 nM
same,IC50,"HMLE; Table 8, biphenyl ureas",3700 nM
same,IC50,BCPAP; [21],1940 nM
same,IC50,[2]; [22],390 nM
same,IC50,"JMAR; JMAR, Table 8, biphenyl ureas",960 nM
"COc1cccc(-c2cc(NC(=O)Nc3cc4ccc(OC5CCN(C)CC5)c(C)c4oc3=O)ccc2OC)c1 [OMe, OMe, 1-(3′,6-dimethoxy-[1,1′-biphenyl]-3-yl)-3-(8-methyl-7-((1-methylpiperidin-4-yl)oxy)-2-oxo-2H-chromen-3-yl)urea]",IC50,A-549; [15],470 nM
same,IC50,PC-3; [16],470 nM
same,IC50,"DRO81-1; Table 8, biphenyl ureas",480 nM
same,IC50,MDAMB231; [17],610 nM
same,IC50,MDA1986; [18],1390 nM
same,IC50,"MRC5; MRC5, Table 8, biphenyl ureas",4300 nM
same,IC50,[1]; [19],200 nM
same,IC50,HCT-116; [20],460 nM
same,IC50,"HMLE; Table 8, biphenyl ureas",1600 nM
same,IC50,BCPAP; [21],390 nM
same,IC50,[2]; [22],170 nM
same,IC50,"JMAR; JMAR, Table 8, biphenyl ureas",500 nM
Cc1c(OC2CCN(C)CC2)ccc2cc(NC(=O)NC(C)(C)C)c(=O)oc12 [drawing 157],IC50,"A-549; Table 9, non-aryl ureas",4850 ± 290 nM
same,IC50,"PC-3; Table 9, non-aryl ureas",4540 ± 460 nM
same,IC50,"DRO81-1; Table 9, non-aryl ureas",> 25000 nM
same,IC50,"MDAMB231; Table 9, non-aryl ureas",3800 nM
same,IC50,"MDA1986; Table 9, non-aryl ureas",21500 nM
same,IC50,"[1]; Table 9, non-aryl ureas",1770 ± 260 nM
same,IC50,"HCT-116; Table 9, non-aryl ureas",12100 ± 610 nM
same,IC50,"BCPAP; Table 9, non-aryl ureas",2570 nM
same,IC50,"[2]; Table 9, non-aryl ureas",3960 ± 140 nM
same,IC50,"JMAR; Table 9, non-aryl ureas",2100 nM
